Data: PubChem BioAssay (NCI)
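The compound was tested at five concentrations on cells cultured in 96-well plates, with a 48-hour exposure period. Definition used: TGI = concentration required for complete inhibition of growth.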

Assays:
Test in all cases: inhibition of tumour cell growth, NCI panel, 48 h
786-0 renal = system: 786-0 renal
A498 renal = system: A498 renal
A549 NSCLC = system: A549 NSCLC
ACHN renal = system: ACHN renal
CAKI-1 renal = system: CAKI-1 renal
CCRF-CEM leukemia = system: CCRF-CEM leukemia
COLO 205 colon = system: COLO 205 colon
DLD-1 colon = system: DLD-1 colon
DMS 114 small cell lung = system: DMS 114 small cell lung
DMS 273 small cell lung = system: DMS 273 small cell lung
HCC-2998 colon = system: HCC-2998 colon
HCT-116 colon = system: HCT-116 colon
HCT-15 colon = system: HCT-15 colon
HL-60(TB) leukemia = system: HL-60(TB) leukemia
HOP-18 NSCLC = system: HOP-18 NSCLC
HOP-62 NSCLC = system: HOP-62 NSCLC
HOP-92 NSCLC = system: HOP-92 NSCLC
HT29 colon = system: HT29 colon
IGROV1 ovarian = system: IGROV1 ovarian
K-562 leukemia = system: K-562 leukemia
KM12 colon = system: KM12 colon
KM20L2 colon = system: KM20L2 colon
LOX IMVI melanoma = system: LOX IMVI melanoma
LXFL 529 NSCLC = system: LXFL 529 NSCLC
M14 melanoma = system: M14 melanoma
M19-MEL melanoma = system: M19-MEL melanoma
MALME-3M melanoma = system: MALME-3M melanoma
MOLT-4 leukemia = system: MOLT-4 leukemia
NCI-H23 lung = system: NCI-H23 lung
NCI-H460 lung = system: NCI-H460 lung
NCI-H522 lung = system: NCI-H522 lung
OVCAR-3 ovarian = system: OVCAR-3 ovarian
OVCAR-4 ovarian = system: OVCAR-4 ovarian
OVCAR-5 ovarian = system: OVCAR-5 ovarian
OVCAR-8 ovarian = system: OVCAR-8 ovarian
RPMI-8226 leukemia = system: RPMI-8226 leukemia
SF-268 CNS = system: SF-268 CNS
SF-295 CNS = system: SF-295 CNS
SF-539 CNS = system: SF-539 CNS
SK-MEL-2 melanoma = system: SK-MEL-2 melanoma
SK-MEL-28 melanoma = system: SK-MEL-28 melanoma
SK-MEL-5 melanoma = system: SK-MEL-5 melanoma
SK-OV-3 ovarian = system: SK-OV-3 ovarian
SN12C renal = system: SN12C renal
SNB-19 CNS = system: SNB-19 CNS
SNB-75 CNS = system: SNB-75 CNS
SR leukemia = system: SR leukemia
SW-620 colon = system: SW-620 colon
TK-10 renal = system: TK-10 renal
U251 CNS = system: U251 CNS
UACC-62 melanoma = system: UACC-62 melanoma
UO-31 renal = system: UO-31 renal
EKVX NSCLC = system: EKVX NSCLC
NCI-H226 lung = system: NCI-H226 lung
RXF 393 renal = system: RXF 393 renal
UACC-257 melanoma = system: UACC-257 melanoma

Measured: TGI

NC1=NS(=O)(=O)Nc2nc(-c3ccc(Cl)cc3)[nH]c21
> 100 µM: 786-0 renal | A498 renal | A549 NSCLC | ACHN renal | CAKI-1 renal | CCRF-CEM leukemia | COLO 205 colon | DLD-1 colon | DMS 114 small cell lung | DMS 273 small cell lung | HCC-2998 colon | HCT-116 colon | HCT-15 colon | HL-60(TB) leukemia | HOP-18 NSCLC | HOP-62 NSCLC | HOP-92 NSCLC | HT29 colon | IGROV1 ovarian | K-562 leukemia | KM12 colon | KM20L2 colon | LOX IMVI melanoma | LXFL 529 NSCLC | M14 melanoma | M19-MEL melanoma | MALME-3M melanoma | MOLT-4 leukemia | NCI-H23 lung | NCI-H460 lung | NCI-H522 lung | OVCAR-3 ovarian | OVCAR-4 ovarian | OVCAR-5 ovarian | OVCAR-8 ovarian | RPMI-8226 leukemia | SF-268 CNS | SF-295 CNS | SF-539 CNS | SK-MEL-2 melanoma | SK-MEL-28 melanoma | SK-MEL-5 melanoma | SK-OV-3 ovarian | SN12C renal | SNB-19 CNS | SNB-75 CNS | SR leukemia | SW-620 colon | TK-10 renal | U251 CNS | UACC-62 melanoma | UO-31 renal

CCOC(=O)N1Cc2ccoc2C1
> 100 µM: 786-0 renal | A549 NSCLC | ACHN renal | CCRF-CEM leukemia | COLO 205 colon | DLD-1 colon | DMS 114 small cell lung | DMS 273 small cell lung | EKVX NSCLC | HCC-2998 colon | HCT-116 colon | HCT-15 colon | HL-60(TB) leukemia | HOP-18 NSCLC | HOP-62 NSCLC | HOP-92 NSCLC | HT29 colon | IGROV1 ovarian | K-562 leukemia | KM12 colon | KM20L2 colon | LOX IMVI melanoma | LXFL 529 NSCLC | M14 melanoma | M19-MEL melanoma | MALME-3M melanoma | MOLT-4 leukemia | NCI-H226 lung | NCI-H23 lung | NCI-H460 lung | NCI-H522 lung | OVCAR-3 ovarian | OVCAR-4 ovarian | OVCAR-5 ovarian | OVCAR-8 ovarian | RPMI-8226 leukemia | RXF 393 renal | SF-268 CNS | SF-295 CNS | SF-539 CNS | SK-MEL-2 melanoma | SK-MEL-28 melanoma | SK-MEL-5 melanoma | SK-OV-3 ovarian | SN12C renal | SNB-19 CNS | SNB-75 CNS | SR leukemia | SW-620 colon | TK-10 renal | U251 CNS | UACC-257 melanoma | UACC-62 melanoma | UO-31 renal
